Measurements: patent US12435044B2, “Pyridazinone herbicides and pyridazinone intermediates used to prepare a herbicide” (FMC Corporation, priority 2018, dated 2025)

What was measured:
Type in all cases: in vivo
[1] = test system: common waterhemp (AMATU; Amaranthus rudis); test: Test J pre-/postemergence, mixtures of Cpd. No. 20 with (b15C2)
Description: (§1) This test evaluated the effect of mixtures of Cpd. No. 20 with (b15C2) on several plant species. Seeds of plant species selected from corn (ZEAMD; Zea mays, cv. ‘Pioneer 1184’), soybean (GLXMA; Glycine max, cv. Pioneer 35T58), giant foxtail (SETFA; Setaria faberi), palmer amaranth (AMAPA; Amaranthus palmeri), common waterhemp (AMATU; Amaranthus rudis), mare's tail (ERICA; Conyza canadensis), and common ragweed (AMBEL; Ambrosia artemisiifolia) were planted in pots containing Tama Silt Loam soil and treated preemergence with a directed soil spray using test chemicals formulated in a non-phytotoxic solvent mixture which included a surfactant.
(§2) At the same time, plants selected from these crop and weed species were planted in pots containing Redi-Earth® planting medium (Scotts Company, 14111 Scottslawn Road, Marysville, Ohio 43041) comprising spaghnum peat moss, vermiculite, wetting agent and starter nutrients and treated postemergence with test chemicals formulated in the same manner. Plants ranged in height from 2 to 10 cm and were in the one- to two-leaf stage for the postemergence treatment. Treated plants and untreated controls were maintained in a greenhouse for approximately 14-21 d, after which time all treated plants were compared to untreated controls and visually evaluated for injury. Plant response ratings, summarized in Tables J1 & J2, are based on a 0 to 100 scale where 0 is no effect and 100 is complete control. A dash (-) response means no test result. Test results are presented as a mean of 4 reps.

[2] = test system: giant foxtail (SETFA; Setaria faberi); test: as above
Description: as §1, §2

[3] = test system: palmer amaranth (AMAPA; Amaranthus palmeri); test: as above
Description: as §1, §2

[4] = test system: common waterhemp (AMATU; Amaranthus rudis); test: Test H postemergence, mixtures of Cpd. No. 20 with atrazine or glyphosate
Description: (§3) This test evaluated the effect of mixtures of Cpd. No. 20 with atrazine or glyphosate on several plant species. Seeds of plant species selected from corn (ZEAMD; Zea mays, cv. ‘Pioneer 1184’), soybean (GLXMA; Glycine max, cv. Pioneer 35T58), giant foxtail (SETFA; Setaria faberi), Surinamgrass (BRADC; Brachiaria decumbens), fall panicum (PANDI; Panicum dichotomiflorum), velvetleaf (ABUTH; Abutilon threophrasti), mare's tail (ERICA; Conyza canadensis), barnyardgrass (ECHCG; Echinochloa crus-galli), large crabgrass (DIGSA; Digitaria sanguinalis), palmer amaranth (AMAPA; Amaranthus palmeri), common waterhemp (AMATU; Amaranthus rudis), E. black nightshade (SOLPT; Solanum ptycanthum), and common ragweed (AMBEL; Ambrosia artemisiifolia) were planted in pots containing Redi-Earth® planting medium (Scotts Company, 14111 Scottslawn Road, Marysville, Ohio 43041) comprising spaghnum peat moss, vermiculite, wetting agent and starter nutrients and treated postemergence using test chemicals formulated in a non-phytotoxic solvent mixture which included a surfactant. Plants ranged in height from 2 to 10 cm and were in the one- to two-leaf stage for the postemergence treatment. Treated plants and untreated controls were maintained in a greenhouse for approximately 14 d, after which time all treated plants were compared to untreated controls and visually evaluated for injury. Plant response ratings, summarized in Tables H1 & H2, are based on a 0 to 100 scale where 0 is no effect and 100 is complete control. A dash (-) response means no test result. Test results are presented as a mean of 4 reps.

[5] = test system: E. black nightshade (SOLPT; Solanum ptycanthum); test: as above
Description: as §3

[6] = test system: corn (ZEAMD; Zea mays, cv. ‘Pioneer 1184’); test: as above
Description: as §3

[7] = test system: giant foxtail (SETFA; Setaria faberi); test: as above
Description: as §3

[8] = test system: Surinamgrass (BRADC; Brachiaria decumbens); test: as above
Description: as §3

[9] = test system: soybean (GLXMA; Glycine max, cv. Pioneer 35T58); test: as above
Description: as §3

[10] = test system: palmer amaranth (AMAPA; Amaranthus palmeri); test: as above
Description: as §3

[11] = test system: barnyardgrass (ECHCG; Echinochloa crus-galli); test: as above
Description: as §3

[12] = test system: mare's tail (ERICA; Conyza canadensis); test: as above
Description: as §3

[13] = test system: fall panicum (PANDI; Panicum dichotomiflorum); test: as above
Description: as §3

[14] = test system: common ragweed (AMBEL; Ambrosia artemisiifolia); test: as above
Description: as §3

[15] = test system: velvetleaf (ABUTH; Abutilon threophrasti); test: as above
Description: as §3

[16] = test system: large crabgrass (DIGSA; Digitaria sanguinalis); test: as above
Description: as §3

## Cc1ccc2ccc(C)c(-c3c(O)c(Cl)nn(C)c3=O)c2c1 [Cpd. No. 20, 6-chloro-4-(2,7-dimethyl-1-naphthalenyl)-5-hydroxy-2-methyl-3(2H)-pyridazinone]
[1]; postemergence, 8 g a.i./ha
  AMATU plant response rating, 0 to 100 scale: 55
[1]; postemergence, 16 g a.i./ha
  AMATU plant response rating, 0 to 100 scale: 53
[1]; postemergence, 31 g a.i./ha
  AMATU plant response rating, 0 to 100 scale: 71
[1]; postemergence, 62 g a.i./ha
  AMATU plant response rating, 0 to 100 scale: 86
[1]; preemergence, 8 g a.i./ha
  AMATU plant response rating, 0 to 100 scale: 0
[1]; preemergence, 16 g a.i./ha
  AMATU plant response rating, 0 to 100 scale: 20
[1]; preemergence, 31 g a.i./ha
  AMATU plant response rating, 0 to 100 scale: 29
[1]; preemergence, 62 g a.i./ha
  AMATU plant response rating, 0 to 100 scale: 50
[2]; postemergence, 8 g a.i./ha
  SETFA plant response rating, 0 to 100 scale: 34
[2]; postemergence, 16 g a.i./ha
  SETFA plant response rating, 0 to 100 scale: 69
[2]; postemergence, 31 g a.i./ha
  SETFA plant response rating, 0 to 100 scale: 75
[2]; postemergence, 62 g a.i./ha
  SETFA plant response rating, 0 to 100 scale: 80
[2]; preemergence, 8 g a.i./ha
  SETFA plant response rating, 0 to 100 scale: 15
[2]; preemergence, 16 g a.i./ha
  SETFA plant response rating, 0 to 100 scale: 63
[2]; preemergence, 31 g a.i./ha
  SETFA plant response rating, 0 to 100 scale: 78
[2]; preemergence, 62 g a.i./ha
  SETFA plant response rating, 0 to 100 scale: 89
[3]; postemergence, 8 g a.i./ha
  AMAPA plant response rating, 0 to 100 scale: 18
[3]; postemergence, 16 g a.i./ha
  AMAPA plant response rating, 0 to 100 scale: 15
[3]; postemergence, 31 g a.i./ha
  AMAPA plant response rating, 0 to 100 scale: 33
[3]; postemergence, 62 g a.i./ha
  AMAPA plant response rating, 0 to 100 scale: 63
[3]; preemergence, 8 g a.i./ha
  AMAPA plant response rating, 0 to 100 scale: 20
[3]; preemergence, 16 g a.i./ha
  AMAPA plant response rating, 0 to 100 scale: 46
[3]; preemergence, 31 g a.i./ha
  AMAPA plant response rating, 0 to 100 scale: 48
[3]; preemergence, 62 g a.i./ha
  AMAPA plant response rating, 0 to 100 scale: 60
[4]; applied alone at 31 g a.i./ha
  Observed result (plant response rating), AMATU: 70
[4]; applied alone at 62 g a.i./ha
  Observed result (plant response rating), AMATU: 80
[4]; applied alone at 125 g a.i./ha
  Observed result (plant response rating), AMATU: 80
[5]; applied alone at 31 g a.i./ha
  Observed result (plant response rating), SOLPT: 86
[5]; applied alone at 62 g a.i./ha
  Observed result (plant response rating), SOLPT: 93
[5]; applied alone at 125 g a.i./ha
  Observed result (plant response rating), SOLPT: 95
[6]; applied alone at 31 g a.i./ha
  Observed result (plant response rating), ZEAMD: 0
[6]; applied alone at 62 g a.i./ha
  Observed result (plant response rating), ZEAMD: 0
[6]; applied alone at 125 g a.i./ha
  Observed result (plant response rating), ZEAMD: 0
[7]; applied alone at 31 g a.i./ha
  Observed result (plant response rating), SETFA: 71
[7]; applied alone at 62 g a.i./ha
  Observed result (plant response rating), SETFA: 79
[7]; applied alone at 125 g a.i./ha
  Observed result (plant response rating), SETFA: 80
[8]; applied alone at 31 g a.i./ha
  Observed result (plant response rating), BRADC: 73
[8]; applied alone at 62 g a.i./ha
  Observed result (plant response rating), BRADC: 84
[8]; applied alone at 125 g a.i./ha
  Observed result (plant response rating), BRADC: 93
[9]; applied alone at 31 g a.i./ha
  Observed result (plant response rating), GLXMA: 30
[9]; applied alone at 62 g a.i./ha
  Observed result (plant response rating), GLXMA: 21
[9]; applied alone at 125 g a.i./ha
  Observed result (plant response rating), GLXMA: 18
[10]; applied alone at 31 g a.i./ha
  Observed result (plant response rating), AMAPA: 10
[10]; applied alone at 62 g a.i./ha
  Observed result (plant response rating), AMAPA: 36
[10]; applied alone at 125 g a.i./ha
  Observed result (plant response rating), AMAPA: 54
[11]; applied alone at 31 g a.i./ha
  Observed result (plant response rating), ECHCG: 100
[11]; applied alone at 62 g a.i./ha
  Observed result (plant response rating), ECHCG: 100
[11]; applied alone at 125 g a.i./ha
  Observed result (plant response rating), ECHCG: 100
[12]; applied alone at 31 g a.i./ha
  Observed result (plant response rating), ERICA: 85
[12]; applied alone at 62 g a.i./ha
  Observed result (plant response rating), ERICA: 85
[12]; applied alone at 125 g a.i./ha
  Observed result (plant response rating), ERICA: 88
[13]; applied alone at 31 g a.i./ha
  Observed result (plant response rating), PANDI: 73
[13]; applied alone at 62 g a.i./ha
  Observed result (plant response rating), PANDI: 84
[13]; applied alone at 125 g a.i./ha
  Observed result (plant response rating), PANDI: 89
[14]; applied alone at 31 g a.i./ha
  Observed result (plant response rating), AMBEL: 89
[14]; applied alone at 62 g a.i./ha
  Observed result (plant response rating), AMBEL: 94
[14]; applied alone at 125 g a.i./ha
  Observed result (plant response rating), AMBEL: 98
[15]; applied alone at 31 g a.i./ha
  Observed result (plant response rating), ABUTH: 76
[15]; applied alone at 62 g a.i./ha
  Observed result (plant response rating), ABUTH: 89
[15]; applied alone at 125 g a.i./ha
  Observed result (plant response rating), ABUTH: 94
[16]; applied alone at 31 g a.i./ha
  Observed result (plant response rating), DIGSA: 34
[16]; applied alone at 62 g a.i./ha
  Observed result (plant response rating), DIGSA: 29
[16]; applied alone at 125 g a.i./ha
  Observed result (plant response rating), DIGSA: 36
